For this experiment, the system named is bacterial strain LF82 binding to the glycoprotein BSA-(Mannose)3 (FimH antagonists). The experiment in a line: Bacterial Binding Assay (BBA). It is filed as cell-based, Escherichia coli. As to conditions: read-out: Bacterial Binding Assay IC50 ± SEM. An excerpt: The purpose of the Bacterial Binding Assay (BBA) is to determine the inhibition activity of selective FimH antagonists on the bacterial strain LF82 binding to the glycoprotein BSA-(Mannose)3.
Below is a list of the Materials used to run the BBA are described below. • 1. LB broth: Supplier: Gibco, #10855 • 2. D-PBS: Supplier: Wisent, #311-425-CL • 3. LB agar plates • 4. 96-well black plate (high binding): Supplier: Costar, #3925 • 5. TopSeal™-A adhesive sealing films; Supplier PerkinElmer, #6005185 • 6. Carbonate-bicarbonate buffer pH 9.6 tablets, Supplier: Medicago, #09-8922-24 • 7. Water, Supplier: Gibco, #15230-162 • 8. Bovine serum albumin (BSA): Supplier: Sigma, #A-7888 • 9. (Man)3-BSA (α1-3, α1-6 Mannotriose-BSA, 1 mg), V-Labs, #NGP1336, lot# HGDX37-169-1 • 10. Tween 20: Supplier: Sigma, #P9416 • 11. Bright-Glo Luciferase Assay System: Supplier: Promega, #E2610 • 12. LF82/Luciferase strain: Invasive ability of an Escherichia coli strain isolated from the ileal mucosa of a patient with Crohn's disease. Boudeau J, Glasser A L, Masseret E, Joly B, Darfeuille-Michaud A, Infect Immun. 1999, 67(9), 4499-509
Solutions and buffers used to run the BBA are described below. • 1. 0.04M carbonate-bicarbonate buffer (coating buffer) • 2. 40 μg/mL BSA-(Man)3: Dissolve 1 mg of (Man)3-BSA in 25 mL of water. • 3. 4000 μg/mL BSA • 4. 40 μg/mL BSA • 5. 1 μg/mL BSA-(Man)3: 150 μL of 40 μg/mL BSA-(Man)3+5.85 mL of 40 μg/mL BSA • 6. 0.5 μg/mL BSA-(Man)3 in 0.02M carbonate-bicarbonate buffer. • 7. 20 μg/mL BSA in 0.02M carbonate-bicarbonate buffer • 8. Blocking buffer (2% BSA/DPBS): 1 g of BSA in 50 mL D-PBS • 9. 2× binding buffer (0.2% BSA/D-PBS): 5 mL of blocking buffer+45 mL D-PBS. • 10. Washing buffer (D-PBS/0.01% Tween 20): 10 μL of Tween 20 in 100 mL D-PBS. • 11. 1× Bright-Glo Luciferase substrate: Dilute 1:1 the Bright-Glo Luciferase Assay System with D-PBS
The experimental protocol used in this example to run the BBA is described below.
Overnight culture of LF82/Luciferase strain: Into two Falcon 50 mL tubes, add 20 mL of LB+20 μL of 50 mg/mL Kanamycin and inoculate with a loop from glycerol stock of the LF82/Luciferase strain. Incubate overnight at 37° C. with no shaking.
Glycoprotein coating of 96-well plates: Add 100 μL/well of 0.5-2 μg/mL BSA-(Man)3. 20 μg/mL BSA is used as the control background. Seal plate using an adhesive sealing film and incubate overnight at room temperature. Wash the 96-well plate three times with 150 μL/well of D-PBS, add 170 μL/well of blocking solution and incubate 45 min (minimum) at room temperature.
Preparation of bacterial suspension: Mix the two cultures tubes (40 mL) and perform a 1:10 dilution in LB (900 μl LB+100 μl culture. Measure optical density (OD) of the bacterial cultures. OD1 ˜5×10^8 cells/mL. Centrifuge LF82 culture for 20 min at 3500 rpm at room temperature. Re-suspend bacterial pellet in D-PBS and centrifuge again for 20 min at 3500 rpm. Re-suspend bacterial pellet in D-PBS to obtain a bacterial concentration of 2×10^9 bacteria/mL. Dilute 1/10 in D-PBS to obtain a final bacterial concentration of 2×10^8 bacteria/mL (=107 bacteria/50 μL). Perform 1/10 serial dilutions in LB of each bacterial suspension, plate 10 μL of dilutions on LB agar plates (final dilutions of 10^−7) and incubate overnight at 37° C. and count CFUs to determine the actual bacteria density in the assay.
Bacterial binding assay: Add 147 μL 2× binding buffer to compound plate (containing 3 μL of compound). After blocking step is performed (at least 45 min), wash plates three times with 200 μL/well of D-PBS. With a 100 μL multichannel manual pipettor, add 50 μL/well of compound diluted in 2× binding buffer. With a 100 μL multichannel manual pipettor, add 50 μL/well of bacterial suspension. Agitate at slow speed for 1 min and incubate 40-75 min at room temperature. Wash 5 times with 150 μL/well of washing buffer and then once with D-PBS. Add 100 μL/well of 1× Bright-Glo Luciferase substrate. […]

The results in this text go back to patent US10407414B2, “Mannose derivatives for treating bacterial infections” (priority 2015, dated 2019).

In general, IC50 refers to the concentration that inhibits the measured activity by half.

Take `OC[C@H]1O[C@H](C#Cc2cccc3cn[nH]c23)[C@@H](O)[C@@H](O)[C@@H]1O` [Compound 1, (2R,3S,4R,5S,6R)-2-(hydroxymethyl)-6-[2-(1H-indazol-7-yl)ethynyl]tetrahydropyran-3,4,5-triol]: the half-maximal inhibitory concentration (IC50) is 98 ± 22 nM.

For `Cc1cc(C#C[C@H]2O[C@H](CO)[C@@H](O)[C@H](O)[C@@H]2O)c2[nH]ncc2c1` [Compound 2, (2R,3S,4R,5S,6R)-2-(hydroxymethyl)-6-[2-(5-methyl-1H-indazol-7-yl)ethynyl]tetrahydropyran-3,4,5-triol], the half-inhibitory concentration (IC50) came to 14 ± 2 nM.

For `OC[C@H]1O[C@H](C#Cc2cccc3[nH]ncc23)[C@@H](O)[C@@H](O)[C@@H]1O` [Compound 3, (2R,3S,4R,5S,6R)-2-(hydroxymethyl)-6-[2-(1H-indazol-4-yl)ethynyl]tetrahydropyran-3,4,5-triol], the IC50 turned out to be 110 ± 10 nM.

Consider `Cc1cc(C#C[C@H]2O[C@H](CO)[C@@H](O)[C@H](O)[C@@H]2O)c2[nH]ccc2c1` [Compound 4, (2R,3S,4R,5S,6R)-2-(hydroxymethyl)-6-[2-(5-methyl-1H-indol-7-yl)ethynyl]tetrahydropyran-3,4,5-triol], for which the IC50 was found to be 46 ± 12 nM.

Turning to `N#Cc1cc(C#C[C@H]2O[C@H](CO)[C@@H](O)[C@H](O)[C@@H]2O)c2nc[nH]c2c1` [Compound 5, 7-[2-[(2R,3S,4R,5S,6R)-3,4,5-trihydroxy-6-(hydroxymethyl)tetrahydropyran-2-yl]ethynyl]-3H-benzimidazole-5-carbonitrile], the half-maximal inhibitory concentration (IC50) is 20 ± 2 nM.

With `OC[C@H]1O[C@H](C#Cc2cc(Cl)cc3cn[nH]c23)[C@@H](O)[C@@H](O)[C@@H]1O` [Compound 6, (2R,3S,4R,5S,6R)-2-[2-(5-chloro-1H-indazol-7-yl)ethynyl]-6-(hydroxymethyl)tetrahydropyran-3,4,5-triol], the IC50 is 24 ± 5 nM.

For the molecule `Cc1cc(C#C[C@H]2O[C@H](CO)[C@@H](O)[C@H](O)[C@@H]2O)c2cn[nH]c2c1` [Compound 7, (2R,3S,4R,5S,6R)-2-(hydroxymethyl)-6-[2-(6-methyl-1H-indazol-4-yl)ethynyl]tetrahydropyran-3,4,5-triol], the 50% inhibitory concentration (IC50) turned out to be 76 ± 26 nM.

Turning to `OC[C@H]1O[C@H](C#Cc2cccc3nn[nH]c23)[C@@H](O)[C@@H](O)[C@@H]1O` [Compound 8, (2R,3S,4R,5S,6R)-2-[2-(3H-benzotriazol-4-yl)ethynyl]-6-(hydroxymethyl)tetrahydropyran-3,4,5-triol], the half-inhibitory concentration (IC50) is 180 ± 40 nM.

`OC[C@H]1O[C@H](C#Cc2cccc3c2NCC3)[C@@H](O)[C@@H](O)[C@@H]1O` [Compound 9, (2R,3S,4R,5S,6R)-2-(hydroxymethyl)-6-(2-indolin-7-ylethynyl)tetrahydropyran-3,4,5-triol]: the IC50 was 725 ± 155 nM.

Take `OC[C@H]1O[C@H](C#Cc2cccc3ncoc23)[C@@H](O)[C@@H](O)[C@@H]1O` [Compound 10, (2R,3S,4R,5S,6R)-2-[2-(1,3-benzoxazol-7-yl)ethynyl]-6-(hydroxymethyl)tetrahydropyran-3,4,5-triol]: the 50% inhibitory concentration (IC50) amounted to 217 ± 133 nM.

Turning to `O=C1Cc2cccc(C#C[C@H]3O[C@H](CO)[C@@H](O)[C@H](O)[C@@H]3O)c2N1` [Compound 11, 7-[2-[(2R,3S,4R,5S,6R)-3,4,5-trihydroxy-6-(hydroxymethyl)tetrahydropyran-2-yl]ethynyl]indolin-2-one], the IC50 was found to be 190 ± 75 nM.

In the case of `O=c1[nH]c2cc(Cl)cc(C#C[C@H]3O[C@H](CO)[C@@H](O)[C@H](O)[C@@H]3O)c2[nH]1` [Compound 12, 6-chloro-4-[2-[(2R,3S,4R,5S,6R)-3,4,5-trihydroxy-6-(hydroxymethyl)tetrahydropyran-2-yl]ethynyl]-1,3-dihydrobenzimidazol-2-one], the half-maximal inhibitory concentration (IC50) stood at 16 ± 6 nM.

In the case of `Cn1ncc2cccc(C#C[C@H]3O[C@H](CO)[C@@H](O)[C@H](O)[C@@H]3O)c21` [Compound 13, (2R,3S,4R,5S,6R)-2-(hydroxymethyl)-6-[2-(1-methylindazol-7-yl)ethynyl]tetrahydropyran-3,4,5-triol], the 50% inhibitory concentration (IC50) was 480 ± 150 nM.

Consider `OC[C@H]1O[C@H](C#Cc2nccc3cn[nH]c23)[C@@H](O)[C@@H](O)[C@@H]1O` [Compound 14, (2R,3S,4R,5S,6R)-2-(hydroxymethyl)-6-[2-(1H-pyrazolo[3,4-c]pyridin-7-yl)ethynyl]tetrahydropyran-3,4,5-triol], for which the concentration for half-maximal inhibition (IC50) was found to be 350 ± 80 nM.

On to `CCCCc1cc(C#C[C@H]2O[C@H](CO)[C@@H](O)[C@H](O)[C@@H]2O)c2[nH]c(=O)[nH]c2c1` [Compound 15, 6-butyl-4-[2-[(2R,3S,4R,5S,6R)-3,4,5-trihydroxy-6-(hydroxymethyl)tetrahydropyran-2-yl]ethynyl]-1,3-dihydrobenzimidazol-2-one], for which the IC50 is 0.7 ± 0.2 nM.

Turning to `OC[C@H]1O[C@H](C#Cc2cc(Br)cc3cn[nH]c23)[C@@H](O)[C@@H](O)[C@@H]1O` [Compound 16, (2R,3S,4R,5S,6R)-2-[2-(5-bromo-1H-indazol-7-yl)ethynyl]-6-(hydroxymethyl)tetrahydropyran-3,4,5-triol], the IC50 stood at 8 ± 1 nM.

As for `COc1ccc(Cn2cc3cc(Br)cc(C#C[C@H]4O[C@H](CO)[C@@H](O)[C@H](O)[C@@H]4O)c3n2)cc1` [Compound 17, (2R,3S,4R,5S,6R)-2-[2-[5-bromo-2-[(4-methoxyphenyl)methyl]indazol-7-yl]ethynyl]-6-(hydroxymethyl)tetrahydropyran-3,4,5-triol], the half-inhibitory concentration (IC50) worked out at 46 ± 14 nM.

With `COc1ccc(Cn2ncc3cc(Br)cc(C#C[C@H]4O[C@H](CO)[C@@H](O)[C@H](O)[C@@H]4O)c32)cc1` [Compound 18, (2R,3S,4R,5S,6R)-2-[2-[5-bromo-1-[(4-methoxyphenyl)methyl]indazol-7-yl]ethynyl]-6-(hydroxymethyl)tetrahydropyran-3,4,5-triol], the IC50 amounted to 67 ± 26 nM.

For the molecule `CCCCc1cc(C#C[C@H]2O[C@H](CO)[C@@H](O)[C@H](O)[C@@H]2O)c2[nH]nnc2c1` [Compound 19, (2R,3S,4R,5S,6R)-2-[2-(6-butyl-3H-benzotriazol-4-yl)ethynyl]-6-(hydroxymethyl)tetrahydropyran-3,4,5-triol], the concentration for half-maximal inhibition (IC50) was 2 ± 0.6 nM.

Regarding `CCCCc1cc(C#C[C@H]2O[C@H](CO)[C@@H](O)[C@H](O)[C@@H]2O)c2[nH]cnc2c1` [Compound 20, (2R,3S,4R,5S,6R)-2-[2-(6-butyl-3H-benzimidazol-4-yl)ethynyl]-6-(hydroxymethyl)tetrahydropyran-3,4,5-triol], the IC50 amounted to 2 ± 0.2 nM.

Consider `CCCCn1ncc2c(C#C[C@H]3O[C@H](CO)[C@@H](O)[C@H](O)[C@@H]3O)cccc21` [Compound 21, (2R,3S,4R,5S,6R)-2-[2-(1-butylindazol-4-yl)ethynyl]-6-(hydroxymethyl)tetrahydropyran-3,4,5-triol], for which the 50% inhibitory concentration (IC50) amounted to 22 ± 0.5 nM.

For `CCCCc1cc(C#C[C@H]2O[C@H](CO)[C@@H](O)[C@H](O)[C@@H]2O)c2c(cnn2C)c1` [Compound 22, (2R,3S,4R,5S,6R)-2-[2-(5-butyl-1-methyl-indazol-7-yl)ethynyl]-6-(hydroxymethyl)tetrahydropyran-3,4,5-triol], the IC50 was 53 ± 4 nM.
